{"source": "paper PMC9413390", "about": "(Molecules, 2022)", "key": {"σ2R": {"target": "T1, σ2R (Rattus norvegicus, UniProt Q5U3Y7)", "T1 construct": "The thawed membrane preparation of rat liver (250 μg/sample) was incubated; from tissue; host or cells: liver membranes of male Sprague-Dawley rats", "T1 sequence (Q5U3Y7 1-176)": "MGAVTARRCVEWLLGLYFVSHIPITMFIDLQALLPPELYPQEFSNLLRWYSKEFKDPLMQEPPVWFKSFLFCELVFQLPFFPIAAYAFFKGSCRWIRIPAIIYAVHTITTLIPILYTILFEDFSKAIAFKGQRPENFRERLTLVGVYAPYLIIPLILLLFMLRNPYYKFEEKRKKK", "test": "σ2R radioligand competition binding assay ([3H]DTG, rat liver membranes)"}, "[1]": {"system": "formalin-induced pain behaviour", "test": "Mouse formalin test", "type": "in vivo", "method": "Mice injected with 5% formalin into the mid-plantar surface of the right hind paw developed the characteristic formalin-induced pain behaviour, evidenced by a biphasic flinching and lifting/licking response. The time course of formalin-induced behaviours evidenced an immediate and acute nociceptive activity (0–5 min, phase I) that, after a short quiescent period (5–10 min, interphase), was followed by a more prolonged response (10–60 min, phase II).\nTo evaluate the systemic antinociceptive effect in both phases of the formalin test, vehicle, (−)-2R-LP2 (2) (2mg/kg), (−)-2S-LP2 (3) (0.7 mg/kg), (+)-2R/S-LP2 (7) (5 mg/kg), and (+)-2R-LP2 (8) (5 mg/kg) were administrated intraperitoneally (i.p.) 20 min before formalin injection, at doses chosen in accordance to previous studies.\nExperiments were performed on male CD1 mice (Envigo Laboratories, Indianapolis, IN, USA) aged between 8 and 12 weeks. Mice were housed in 5 animals per cage under a 12/12 h light/dark cycle at a constant temperature (23–25 °C) with free access to food and water, and were allowed to acclimate for at least one week upon arrival before starting all experiments, which were conducted between 9:00 a.m. and 3:00 p.m. This study was executed according to the European Communities Council directive and Italian regulation (EEC Council 2010/63/EU and Italian D.Lgs. no. 26/2014) to replace, reduce, and refine the use of laboratory animals. All procedures were approved by the ethical committee of the University of Catania (OPBA) and by the Italian Ministry of Health (authorization n° 385/2021-PR).\nFormalin and naloxone hydrochloride were purchased from Merck. PRE-84 synthesis was reported in the supporting information (Figure S7). All compounds were dissolved in pyrogen-free isotonic saline and dimethyl sulfoxide, (DMSO 0.5% v/v). All LP compounds were administrated i.p. 20 min before formalin injection. Naloxone hydrochloride s.c. and PRE-084 hydrochloride s.c. were administered 20 min before the injection of the LP compounds.\nFormalin solution (5%, 10 μL) was administered subcutaneously into the plantar surface of the right hind paw (i.pl.), monitoring the nociceptive behavior, such as licking and flicking or shanking the injected paw, for 1 h and recording every 5 min, as previously reported.\nThe formalin injection induces a rapid pain response (phase I), which lasts about 5 min, due to direct nociceptors’ activation, characterized by an acute form of pain. After a short quiescent period, another behavioral pain form (phase II) occurs, considered more important clinically, characterized by an inflammatory component and persistent pain due to nociceptive sensitization in the dorsal horn of the spinal cord.\nResults are expressed as mean ± S.E.M. (n = 8–10 per group). * p < 0.05, ** p < 0.01. Two-way ANOVA was followed by Bonferroni’s multiple comparison test. Statistical analyses were performed using GraphPad Prism version 9.3.1 (GraphPad Software, San Diego, CA, USA)."}, "σ1R": {"target": "T2, σ1R (Cavia porcellus, UniProt Q60492)", "T2 construct": "The thawed membrane preparation of guinea pig brain cortex (250 μg/sample) was incubated; from tissue; host or cells: brain cortex membranes of male Dunkin-Hartley guinea pigs", "T2 sequence (Q60492 whole entry)": "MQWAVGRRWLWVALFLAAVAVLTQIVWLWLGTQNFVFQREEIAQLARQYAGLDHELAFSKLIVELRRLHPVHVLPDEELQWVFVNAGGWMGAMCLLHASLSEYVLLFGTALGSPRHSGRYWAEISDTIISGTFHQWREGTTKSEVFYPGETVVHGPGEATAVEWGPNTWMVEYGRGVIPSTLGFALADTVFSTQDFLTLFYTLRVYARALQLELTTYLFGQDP", "test": "σ1R radioligand competition binding assay ([3H]-(+)-pentazocine, guinea pig brain cortex membranes)", "conditions": "for Ki σ2R/σ1R selectivity ratio: ratio of Ki σ2R to Ki σ1R"}, "KOR": {"target": "T3, KOR (Cavia porcellus, UniProt P41144)", "T3 construct": "from tissue; host or cells: brain membranes of male Dunkin-Hartley guinea pigs", "T3 sequence (P41144 whole entry)": "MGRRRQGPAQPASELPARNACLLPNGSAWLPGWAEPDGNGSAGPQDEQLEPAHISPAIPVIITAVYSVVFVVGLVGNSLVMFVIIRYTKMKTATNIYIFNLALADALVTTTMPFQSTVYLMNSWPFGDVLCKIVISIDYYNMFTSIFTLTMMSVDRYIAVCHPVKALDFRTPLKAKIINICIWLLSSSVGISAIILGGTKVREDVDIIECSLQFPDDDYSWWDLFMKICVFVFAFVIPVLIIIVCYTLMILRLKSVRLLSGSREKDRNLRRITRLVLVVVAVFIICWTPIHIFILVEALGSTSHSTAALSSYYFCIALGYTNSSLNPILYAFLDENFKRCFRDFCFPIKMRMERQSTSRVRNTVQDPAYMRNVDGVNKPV", "test": "biochemical", "type": "binding, guinea pig"}, "MOR": {"target": "T4, MOR (Rattus norvegicus, UniProt P33535)", "T4 construct": "from tissue; host or cells: brain membranes of male Sprague-Dawley rats", "T4 sequence (P33535 whole entry)": "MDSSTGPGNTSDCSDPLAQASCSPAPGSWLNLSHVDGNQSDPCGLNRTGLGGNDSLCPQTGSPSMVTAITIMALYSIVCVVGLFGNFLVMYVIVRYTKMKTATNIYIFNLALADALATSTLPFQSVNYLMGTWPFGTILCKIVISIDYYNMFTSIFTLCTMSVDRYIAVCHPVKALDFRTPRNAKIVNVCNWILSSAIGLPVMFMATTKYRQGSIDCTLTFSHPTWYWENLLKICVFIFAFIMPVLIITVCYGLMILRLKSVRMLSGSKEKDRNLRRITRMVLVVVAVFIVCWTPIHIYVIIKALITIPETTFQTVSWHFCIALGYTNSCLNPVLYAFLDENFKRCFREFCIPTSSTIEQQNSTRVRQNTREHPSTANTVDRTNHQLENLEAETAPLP", "test": "MOR radioligand binding assay ([3H]-DAMGO, rat brain membranes)"}, "DOR": {"target": "T5, DOR (Rattus norvegicus, UniProt P33533)", "T5 construct": "from tissue; host or cells: brain membranes of male Sprague-Dawley rats", "T5 sequence (P33533 whole entry)": "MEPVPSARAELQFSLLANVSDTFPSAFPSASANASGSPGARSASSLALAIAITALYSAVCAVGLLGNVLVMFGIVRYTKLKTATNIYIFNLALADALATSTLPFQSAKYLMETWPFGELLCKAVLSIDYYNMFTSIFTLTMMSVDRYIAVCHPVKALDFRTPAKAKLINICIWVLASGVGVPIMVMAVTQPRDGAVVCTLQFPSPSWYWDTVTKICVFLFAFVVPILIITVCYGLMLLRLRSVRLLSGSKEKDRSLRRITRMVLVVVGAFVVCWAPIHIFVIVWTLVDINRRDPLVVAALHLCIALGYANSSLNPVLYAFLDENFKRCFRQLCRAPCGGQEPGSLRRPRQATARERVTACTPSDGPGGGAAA", "test": "DOR radioligand binding assay ([3H]-Deltorphin II, rat brain membranes)"}, "[2]": {"system": "formalin-induced pain behaviour", "set-up": "method as in PMID 32186844, PMID 19587856", "conditions": "mouse, injected alone; cited from earlier work"}, "[3]": {"conditions": "5 mg/kg i.p. 20 min before formalin, vs vehicle"}}, "note": "Where a name gives a salt, the structure may show the parent alone. Read-outs that look alike come from different tables or passages of the source.", "data": [{"smiles": "CO[C@H](CN1CC[C@@]2(C)c3cc(O)ccc3C[C@@H]1[C@@H]2C)c1ccccc1", "note": "[(−)-2S-LP2 (3)]", "values": [{"measurement": "Ki", "setting": "σ2R", "result": "1010 ± 191", "unit": "nM"}, {"measurement": "analgesic effect, flinching/licking time in both phases of the formalin test", "setting": "[1]; 0.7 mg/kg i.p. 20 min before 5% formalin", "result": "significant analgesic effect"}, {"measurement": "antinociceptive effect after naloxone pre-treatment", "setting": "[1]; naloxone hydrochloride 3 mg/kg s.c. 20 min before compound 0.7 mg/kg i.p.", "result": "antagonized"}, {"measurement": "Ki", "setting": "σ1R", "result": "113 ± 13.5", "unit": "nM"}]}, {"smiles": "CO[C@@H](CN1CC[C@]2(C)c3cc(O)ccc3C[C@H]1[C@H]2C)c1ccccc1", "note": "[(+)-2R-LP2 (8), (2S,6S,11S)-3-((R)-2-methoxy-2-phenylethyl)-6,11-dimethyl-1,2,3,4,5,6-hexahydro-2,6-methanobenzo[d]azocin-8-ol]", "values": [{"measurement": "Ki", "setting": "KOR", "result": "1610 ± 70", "unit": "nM"}, {"measurement": "Ki", "setting": "MOR", "result": "789 ± 30", "unit": "nM"}, {"measurement": "Ki", "setting": "σ2R", "result": "1910 ± 325", "unit": "nM"}, {"measurement": "effect on nociceptive behaviour in the formalin test", "setting": "[1]; [3]", "result": "not significative"}, {"measurement": "Ki", "setting": "σ1R", "result": "47.9 ± 7.52", "unit": "nM"}, {"measurement": "Ki σ2R/σ1R selectivity ratio", "setting": "σ1R", "result": 40}, {"measurement": "Ki", "setting": "DOR", "result": "1010 ± 25", "unit": "nM"}]}, {"smiles": "CN1CCN(CCc2ccc(Cl)c(Cl)c2)CC1", "note": "[BD-1063, reference compound]", "values": [{"measurement": "Ki", "setting": "σ1R; [3H]-(+)-pentazocine 2 nM, guinea pig brain cortex membranes, read-out: Ki (nM) ± SD σ1R", "result": "14 ± 2.7", "unit": "nM"}]}, {"smiles": "CO[C@H](CN1CC[C@]2(C)c3cc(O)ccc3C[C@H]1[C@H]2C)c1ccccc1", "note": "[(+)-2S-LP2 (9), (2S,6S,11S)-3-((S)-2-methoxy-2-phenylethyl)-6,11-dimethyl-1,2,3,4,5,6-hexahydro-2,6-methanobenzo[d]azocin-8-ol]", "values": [{"measurement": "Ki", "setting": "KOR", "result": "1450 ± 29", "unit": "nM"}, {"measurement": "Ki", "setting": "MOR", "result": "1170 ± 30", "unit": "nM"}, {"measurement": "Ki", "setting": "σ2R", "result": "2220 ± 417", "unit": "nM"}, {"measurement": "effect on nociceptive behaviour in the formalin test", "setting": "[1]; [3]", "result": "did not differ significantly from the vehicle"}, {"measurement": "Ki", "setting": "σ1R", "result": "47 ± 8.82", "unit": "nM"}, {"measurement": "Ki σ2R/σ1R selectivity ratio", "setting": "σ1R", "result": 47}, {"measurement": "Ki", "setting": "DOR", "result": "1040 ± 40", "unit": "nM"}]}, {"smiles": "CO[C@@H](CN1CC[C@@]2(C)c3cc(O)ccc3C[C@@H]1[C@@H]2C)c1ccccc1", "note": "[(−)-2R-LP2 (2)]", "values": [{"measurement": "Ki", "setting": "σ2R", "result": "66.7 ± 17.9", "unit": "nM"}, {"measurement": "analgesic effect, flinching/licking time in both phases of the formalin test", "setting": "[1]; 2 mg/kg i.p. 20 min before 5% formalin", "result": "same profile with a minor potency"}, {"measurement": "Ki", "setting": "σ1R", "result": "183 ± 21", "unit": "nM"}]}, {"smiles": "COC(CN1CC[C@]2(C)c3cc(O)ccc3C[C@H]1[C@H]2C)c1ccccc1", "note": "(single isomer, unassigned; (+)) [(+)-2R/S-LP2 (7)]", "values": [{"measurement": "Ki", "setting": "KOR", "result": "1390 ± 40", "unit": "nM"}, {"measurement": "Ki", "setting": "MOR", "result": "1140 ± 20", "unit": "nM"}, {"measurement": "Ki", "setting": "σ2R", "result": "2390 ± 514", "unit": "nM"}, {"measurement": "severity of the first phase of formalin-induced pain", "setting": "[1]; 5 mg/kg i.p. 20 min before formalin, phase I", "result": "did not alter"}, {"measurement": "second phase of formalin-induced pain (number of flinches, lifting/licking time)", "setting": "[1]; 5 mg/kg i.p. 20 min before formalin, phase II, vs vehicle", "result": "significantly decreased"}, {"measurement": "antinociceptive effect after PRE-084 pre-treatment", "setting": "[1]; PRE-084 hydrochloride 32 mg/kg s.c. 20 min before compound 5 mg/kg i.p., second phase", "result": "prevented"}, {"measurement": "Ki", "setting": "σ1R", "result": "26.6 ± 2.35", "unit": "nM"}, {"measurement": "Ki", "setting": "DOR", "result": "1040 ± 35", "unit": "nM"}]}, {"smiles": "COC(CN1CC[C@@]2(C)c3cc(O)ccc3C[C@@H]1[C@@H]2C)c1ccccc1", "note": "(single isomer, unassigned; (-)) [(−)-2R/S-LP2 (1)]", "values": [{"measurement": "Ki", "setting": "σ2R", "result": "66.5 ± 10.9", "unit": "nM"}, {"measurement": "Ki", "setting": "σ1R", "result": "171 ± 46.1", "unit": "nM"}]}, {"smiles": "O=C(OCCN1CCOCC1)C1(c2ccccc2)CCCCC1", "note": "[PRE-084 hydrochloride, 2-morpholinoethyl 1-phenylcyclohexane-1-carboxylate]", "values": [{"measurement": "severity of the first and second phases of formalin-induced pain, given alone", "setting": "[2]", "result": "did not change"}]}]}
